Measurements published in ChEMBL document CHEMBL4842364 (J Med Chem, 2021).
Active and inactive are the calls of the source. No cut-off for these calls is given here.

Columns and labels:
[1] = AUC(0 to 24 hrs) in mouse at 60 mg/kg, po; type: ADME, organism-based; parameters: time < 24 hr, route oral, dose 60 mg/kg; details: in vivo
[2] = Intrinsic clearance in mouse microsomes; type: ADME, Microsome
Wee1-like protein kinase = Wee1-like protein kinase (Homo sapiens, UniProt P30291)
Description: Displacement of Alexa Fluor labelled kinase tracer178 from WEE1 (unknown origin) incubated for 60 mins by FRET assay

[3] = Intrinsic clearance in human microsomes; type: ADME, Microsome
[4] = Octanol/buffer distribution coefficient, logD of the compound at pH 7.4; type: physicochemical
NCI-H23 = test: Antiproliferative activity against human NCI-H23 cells assessed as reduction in cell viability after 4 days by CellTiter-Glo assay
[5] = AUC(0 to 24 hrs) in rat at 60 mg/kg, po; type: ADME, organism-based; parameters: time < 24 hr, route oral, dose 60 mg/kg; details: in vivo
[6] = AUC(0 to 24 hrs) in mouse at 10 mg/kg, po; type: ADME, organism-based; parameters: time < 24 hr, route oral, dose 10 mg/kg; details: in vivo
A-427 [7] = test: Antitumor activity against human A-427 cells xenografted in SCID mouse assessed as reduction in tumor growth at 80 mg/kg, po administered once daily for 28 days and measured twice per weeks; type: functional, organism-based; details: time 28.0 day
A-427 [8] = test: Antiproliferative activity against human A-427 cells assessed as reduction in cell viability after 3 days by CellTiter-Glo assay; type: functional, cell-based; details: A-427, 72 h
[9] = AUC in mouse plasma at 80 mg/kg, po administered once daily for 28 days; type: ADME, organism-based; parameters: time 28 day, dose 80 mg/kg

Chain of Wee1-like protein kinase (P30291 whole entry): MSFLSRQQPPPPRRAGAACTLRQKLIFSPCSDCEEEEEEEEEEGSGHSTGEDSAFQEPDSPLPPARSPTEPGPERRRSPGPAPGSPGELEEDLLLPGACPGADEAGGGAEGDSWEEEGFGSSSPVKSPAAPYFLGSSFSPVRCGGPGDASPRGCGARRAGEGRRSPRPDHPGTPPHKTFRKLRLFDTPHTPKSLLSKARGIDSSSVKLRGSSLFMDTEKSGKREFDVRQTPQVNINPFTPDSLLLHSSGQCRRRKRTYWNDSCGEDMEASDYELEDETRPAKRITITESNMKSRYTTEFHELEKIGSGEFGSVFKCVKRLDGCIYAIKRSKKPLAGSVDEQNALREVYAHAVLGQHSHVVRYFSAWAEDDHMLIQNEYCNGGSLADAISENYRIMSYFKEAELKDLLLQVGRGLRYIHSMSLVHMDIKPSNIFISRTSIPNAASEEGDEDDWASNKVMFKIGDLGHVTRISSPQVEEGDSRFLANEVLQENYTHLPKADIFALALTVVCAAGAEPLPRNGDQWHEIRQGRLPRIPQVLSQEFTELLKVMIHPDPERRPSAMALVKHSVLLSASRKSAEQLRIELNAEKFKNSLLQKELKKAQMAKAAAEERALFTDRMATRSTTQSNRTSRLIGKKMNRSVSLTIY

Row | SMILES | AUC(0-t) at 24 h [1] | CLint scaled [2] | IC50 (Wee1-like protein kinase) | CLint scaled [3] | logD [4] | IC50 (NCI-H23; Homo sapiens, NCI-H23, 96 h) | AUC(0-t) at 24 h [5] | IC50 (NCI-H23; nci-h23) | AUC(0-t) at 24 h [6] | Activity (A-427 [7]) | IC50 (A-427 [8]) | AUC at 672 h [9]
1 | C=CCn1c(=O)c2cnc(Nc3ccc(N4CCN(C)CC4)cc3)nc2n1-c1ccc2c(n1)[C@@](N)(CC)CC2 | 3.9 µM·h | 152 mL/min/kg | 3.2 nM | 26 mL/min/kg | 1.4 | 26 nM |  |  |  |  |  | 
2 | C=CCn1c(=O)c2cnc(Nc3ccc(N4CCN(C)CC4)cc3)nc2n1-c1ccc2c(n1)C(C)(O)CO2 (single isomer, unassigned) |  | < 38 mL/min/kg | 4.6 nM | 17 mL/min/kg | 1.4 | 1420 nM |  |  |  |  |  | 
3 | C=CCn1c(=O)c2cnc(Nc3ccc4c(c3)CCN(C)C4)nc2n1-c1cccc(C(C)(C)O)n1 | 9.6 µM·h | 186 mL/min/kg | 2.6 nM |  | 2.5 | 81 nM |  |  |  |  |  | 
4 | C=CCn1c(=O)c2cnc(Nc3ccc(N4CCN(C)CC4)cc3)nc2n1-c1ccc2c(n1)C(O)(C(F)(F)F)CC2 (single isomer, unassigned) | 33 µM·h | 126 mL/min/kg | 3.6 nM | 71 mL/min/kg | 2.8 | 185 nM | 37 µM·h |  |  |  |  | 
5 | C=CCn1c(=O)c2cnc(Nc3ccc(N4CCN(C)CC4)cc3)nc2n1-c1ccc2c(c1)C(C)(O)CC2 (single isomer, unassigned) | 19 µM·h | 206 mL/min/kg | 3.3 nM | 26 mL/min/kg | 2.5 | 186 nM | 17 µM·h |  |  |  |  | 
6 | C=CCn1c(=O)c2cnc(Nc3cc(N4CCN(C)CC4)c4ccn(C)c4c3)nc2n1-c1ccc2c(n1)[C@@](O)(CC)CC2 | 14 µM·h | 395 mL/min/kg | 12 nM | 41 mL/min/kg | 2.7 | 109 nM |  |  |  |  |  | 
7 | C=CCn1c(=O)c2cnc(Nc3ccc(N4CCN(C)CC4)c(C)c3)nc2n1-c1ccc2c(n1)[C@@](O)(CC)CC2 | 59 µM·h | 191 mL/min/kg | 3.1 nM | 102 mL/min/kg | 3 | 58 nM | 43 µM·h |  |  |  |  | 
8 | C=CCn1c(=O)c2cnc(Nc3ccc(N4CCN(C)CC4)cc3)nc2n1-c1ccc2c(n1)[C@@](C)(O)CC2 | 21 µM·h | < 8.6 mL/min/kg | 5.2 nM | 18 mL/min/kg | 2 | 1140 nM | 14 µM·h |  |  |  |  | 
9 | C=CCn1c(=O)c2cnc(Nc3ccc(N4CCN(C)CC4)cc3)nc2n1-c1ccc2c(n1)C(O)CC2 (stereo in doubt; 8) |  | < 38 mL/min/kg | 5.7 nM | 12 mL/min/kg | 1.7 | 2300 nM | 0.3 µM·h |  |  |  |  | 
10 | C=CCn1c(=O)c2cnc(Nc3ccc(N4CCN(C)CC4)cc3)nc2n1-c1ccc2c(n1)C(F)(F)CC2 |  | 293 mL/min/kg | 6.4 nM | 48 mL/min/kg | 2.8 | 1530 nM |  |  |  |  |  | 
11 | C=CCn1c(=O)c2cnc(Nc3cccc(N4CCN(C)CC4)c3)nc2n1-c1ccc2c(n1)[C@@](O)(CC)CC2 |  | 1110 mL/min/kg | 3.2 nM | 135 mL/min/kg | 2.6 | 277 nM |  |  |  |  |  | 
12 | C=CC(F)(F)n1c(=O)c2cnc(Nc3ccc(N4CCN(C)CC4)cc3)nc2n1-c1ccc2c(n1)[C@@](O)(CC)CC2 |  |  | > 100 nM |  |  | 4720 nM |  |  |  |  |  | 
13 | C=CCn1c(=O)c2cnc(Nc3ccc(N4CCN(C)CC4)cc3)nc2n1-c1ccc2c(n1)[C@@](O)(C(F)F)CC2 |  | 108 mL/min/kg | 2.6 nM | 47 mL/min/kg | 2.3 | 270 nM |  |  |  |  |  | 
14 | C=CCn1c(=O)c2cnc(Nc3ccc(N4CCN(C)CC4)cc3)nc2n1-c1ccc2c(n1)C(O)CC2 (stereo in doubt; 9) |  |  | 4.3 nM |  |  |  |  | 2520 nM |  |  |  | 
15 | C=CCn1c(=O)c2cnc(Nc3ccc4c(c3)CN(C)CC4)nc2n1-c1cccc(C(C)(C)O)n1 |  | 603 mL/min/kg | 2.6 nM |  | 2.4 | 64 nM |  |  | 1 µM·h |  |  | 
16 | C=CCn1c(=O)c2cnc(Nc3ccc4c(c3)CN(C)CC43CC3)nc2n1-c1cccc(C(C)(C)O)n1 |  | 1060 mL/min/kg |  |  | 3.1 |  |  |  | 0.7 µM·h |  |  | 
17 | CC[C@@]1(O)CCc2ccc(-n3c4nc(Nc5ccc(N6CCN(C)CC6)cc5)ncc4c(=O)n3CC=C(F)F)nc21 |  |  | 22 nM |  |  | 5780 nM |  |  |  |  |  | 
18 | C=CCn1c(=O)c2cnc(Nc3ccc4c(c3)CN(CCO)CC4)nc2n1-c1cccc(C(C)(C)O)n1 | 1.8 µM·h | 307 mL/min/kg | 2.5 nM |  | 2.2 | 274 nM |  |  |  |  |  | 
19 | C=CCn1c(=O)c2cnc(Nc3ccc(N4CCN(C)CC4)c(C)c3)nc2n1-c1ccc2c(n1)[C@](C)(O)CC2 | 52 µM·h | 121 mL/min/kg | 2.3 nM | 80 mL/min/kg | 2.6 | 130 nM | 40 µM·h |  |  |  |  | 
20 | C=CCn1c(=O)c2cnc(Nc3ccc4c(c3)CNCC43CC3)nc2n1-c1ccc2c(n1)[C@@](O)(C(F)(F)F)CC2 |  | 555 mL/min/kg | 2.5 nM | 97 mL/min/kg | 2.1 | 153 nM |  |  |  |  |  | 
21 | C=CCn1c(=O)c2cnc(Nc3ccc4c(c3)CNCC4)nc2n1-c1cccc(C(C)(C)O)n1 | 2.9 µM·h | 170 mL/min/kg |  |  | 1.3 | 105 nM |  |  | 0.2 µM·h |  |  | 
22 | C=CCn1c(=O)c2cnc(Nc3ccc(N4CCN(C)CC4)cc3)nc2n1-c1ccc2c(n1)C(O)(C1CC1)CC2 (single isomer, unassigned) |  | 78 mL/min/kg | 2.9 nM | 39 mL/min/kg | 2.4 | 186 nM |  |  |  |  |  | 
23 | C=CCn1c(=O)c2cnc(Nc3ccc4c(c3)CNCC43CC3)nc2n1-c1cccc(C(C)(C)O)n1 | 6.4 µM·h | 1400 mL/min/kg | 2.4 nM |  | 1.9 | 54 nM |  |  |  |  |  | 
24 | C=CCn1c(=O)c2cnc(Nc3ccc(N4CCNCC4)cc3)nc2n1-c1ccc2c(n1)[C@@](O)(CC)CC2 | 1 µM·h | 52 mL/min/kg | 3.2 nM | 26 mL/min/kg | 1 | 212 nM |  |  |  |  |  | 
25 | C=CCn1c(=O)c2cnc(Nc3ccc4c(ccn4C4CCN(C)CC4)c3)nc2n1-c1ccc2c(n1)[C@@](O)(CC)CC2 |  | 124 mL/min/kg | 2.6 nM | 267 mL/min/kg | 2.7 | 116 nM |  |  |  |  |  | 
26 | C=CCn1c(=O)c2cnc(Nc3ccc(N4CCN(C)CC4)cc3)nc2n1-c1ccc2c(n1)[C@](C)(O)CCC2 | 54 µM·h | 66 mL/min/kg | 3.7 nM | 18 mL/min/kg | 2.6 | 177 nM | 9.4 µM·h |  |  | Active | 155 nM | 83 µM·h
27 | CC[C@@]1(O)CCc2ccc(-n3c4nc(Nc5ccc(N6CCN(C)CC6)cc5)ncc4c(=O)n3CC3CC3)nc21 |  |  | 64 nM |  |  | 3360 nM |  |  |  |  |  | 
28 | C=CCn1c(=O)c2cnc(Nc3ccc(N4CCN(C)CC4)cc3)nc2n1-c1ccc2c(n1)[C@@](O)(CC)CCC2 | 35 µM·h | 126 mL/min/kg | 3.7 nM | 71 mL/min/kg | 2.9 | 56 nM | 24 µM·h |  |  |  |  | 
